Patent US11739078B2, “Methods of inhibiting kinases” (INSILICO MEDICINE IP LIMITED, priority 2019, dated 2023)

What was measured:
[1] = molecular target: MAP4K4 (h) (Homo sapiens (Human), UniProt O95819); assay: MAP4K4 in vitro kinase assay (radiometric); type: biochemical; details: read-out: MAP4K4_IC50
Experimental: (§1) (specific activity and concentration as required). The reaction is initiated by the addition of the Mg/ATP mix. After incubation for 40 minutes at room temperature, the reaction is stopped by the addition of phosphoric acid to a concentration of 0.5%.

[2] = molecular target: TNIK (Homo sapiens (Human), UniProt Q9UKE5); assay: TNIK enzymatic assay (radiometric kinase inhibition); type: biochemical; details: read-out: TNIK_IC50
TNIK, sequence (Q9UKE5 whole entry): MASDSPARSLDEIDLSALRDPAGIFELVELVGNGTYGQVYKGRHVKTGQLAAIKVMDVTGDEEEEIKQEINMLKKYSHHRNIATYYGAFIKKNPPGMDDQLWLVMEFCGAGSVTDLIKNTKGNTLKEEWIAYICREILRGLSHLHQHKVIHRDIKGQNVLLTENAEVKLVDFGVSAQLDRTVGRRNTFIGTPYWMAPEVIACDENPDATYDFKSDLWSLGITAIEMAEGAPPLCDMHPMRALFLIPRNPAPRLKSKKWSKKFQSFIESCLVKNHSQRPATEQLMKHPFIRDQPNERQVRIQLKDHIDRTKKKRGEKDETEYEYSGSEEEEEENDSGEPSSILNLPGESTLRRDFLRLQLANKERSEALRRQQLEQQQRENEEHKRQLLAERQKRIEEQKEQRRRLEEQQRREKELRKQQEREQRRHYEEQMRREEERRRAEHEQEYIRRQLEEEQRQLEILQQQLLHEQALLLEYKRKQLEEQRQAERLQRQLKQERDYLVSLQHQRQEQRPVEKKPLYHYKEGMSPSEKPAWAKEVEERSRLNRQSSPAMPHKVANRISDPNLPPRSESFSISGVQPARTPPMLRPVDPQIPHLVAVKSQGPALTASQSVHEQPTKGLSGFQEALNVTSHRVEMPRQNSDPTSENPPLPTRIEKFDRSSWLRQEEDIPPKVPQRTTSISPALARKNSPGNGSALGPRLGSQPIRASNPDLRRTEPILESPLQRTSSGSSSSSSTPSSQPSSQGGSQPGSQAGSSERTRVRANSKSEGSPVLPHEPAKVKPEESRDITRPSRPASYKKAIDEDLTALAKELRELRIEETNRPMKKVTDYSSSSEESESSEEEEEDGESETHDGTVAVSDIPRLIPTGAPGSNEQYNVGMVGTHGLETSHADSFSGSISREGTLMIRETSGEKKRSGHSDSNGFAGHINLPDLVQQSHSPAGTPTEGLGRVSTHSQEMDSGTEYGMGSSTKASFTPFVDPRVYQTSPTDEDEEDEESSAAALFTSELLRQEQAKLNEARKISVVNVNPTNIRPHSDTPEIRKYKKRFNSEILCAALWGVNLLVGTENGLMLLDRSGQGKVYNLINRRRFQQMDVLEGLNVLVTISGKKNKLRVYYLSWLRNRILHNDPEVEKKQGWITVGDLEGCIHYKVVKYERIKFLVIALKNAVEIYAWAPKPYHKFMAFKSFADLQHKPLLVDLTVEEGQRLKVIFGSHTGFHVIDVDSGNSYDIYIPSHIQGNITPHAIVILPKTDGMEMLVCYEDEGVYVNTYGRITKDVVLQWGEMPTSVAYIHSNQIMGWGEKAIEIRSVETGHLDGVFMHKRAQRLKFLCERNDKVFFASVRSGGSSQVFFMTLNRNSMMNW
Experimental: as §1, with “The compounds were studied for function as TNIK inhibitors to generate the data of Table 1. […] (specific” for “(specific”

MAP4K4 (h), sequence (O95819 whole entry): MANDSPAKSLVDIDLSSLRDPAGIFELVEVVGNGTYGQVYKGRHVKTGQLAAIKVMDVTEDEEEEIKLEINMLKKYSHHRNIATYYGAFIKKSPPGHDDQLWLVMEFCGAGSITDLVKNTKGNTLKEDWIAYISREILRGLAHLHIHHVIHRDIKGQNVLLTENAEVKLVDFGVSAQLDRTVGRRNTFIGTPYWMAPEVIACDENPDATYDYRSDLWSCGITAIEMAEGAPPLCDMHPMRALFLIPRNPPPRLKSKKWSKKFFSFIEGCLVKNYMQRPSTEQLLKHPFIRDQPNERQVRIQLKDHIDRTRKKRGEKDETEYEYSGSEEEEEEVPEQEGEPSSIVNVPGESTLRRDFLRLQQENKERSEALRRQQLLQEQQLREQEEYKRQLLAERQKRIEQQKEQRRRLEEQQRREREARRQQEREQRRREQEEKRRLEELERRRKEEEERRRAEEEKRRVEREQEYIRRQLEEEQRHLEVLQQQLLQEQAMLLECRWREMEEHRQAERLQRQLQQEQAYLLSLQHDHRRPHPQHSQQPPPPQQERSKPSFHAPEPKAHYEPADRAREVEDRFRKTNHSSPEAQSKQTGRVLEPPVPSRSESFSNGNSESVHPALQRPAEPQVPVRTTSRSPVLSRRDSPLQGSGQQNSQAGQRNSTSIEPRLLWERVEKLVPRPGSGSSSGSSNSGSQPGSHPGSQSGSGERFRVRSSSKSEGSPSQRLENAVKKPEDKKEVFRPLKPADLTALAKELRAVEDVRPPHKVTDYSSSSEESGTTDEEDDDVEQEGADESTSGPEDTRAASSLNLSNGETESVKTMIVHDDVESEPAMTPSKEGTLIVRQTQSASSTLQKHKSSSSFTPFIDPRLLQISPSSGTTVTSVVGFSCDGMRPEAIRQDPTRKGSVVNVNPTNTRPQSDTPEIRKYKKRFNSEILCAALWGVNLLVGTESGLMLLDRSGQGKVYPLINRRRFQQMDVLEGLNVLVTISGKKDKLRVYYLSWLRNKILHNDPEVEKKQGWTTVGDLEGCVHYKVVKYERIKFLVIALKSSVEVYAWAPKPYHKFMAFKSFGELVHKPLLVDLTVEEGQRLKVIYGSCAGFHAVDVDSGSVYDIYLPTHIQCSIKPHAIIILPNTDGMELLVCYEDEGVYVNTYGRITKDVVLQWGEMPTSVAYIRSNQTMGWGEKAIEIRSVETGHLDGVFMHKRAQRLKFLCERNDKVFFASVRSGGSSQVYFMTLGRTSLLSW

SMILES | IC50 [1] | IC50 [2]
O=C(Nc1ccncc1F)c1ccc(-c2c(-c3ccc(F)cc3)ncn2CC2CCOC2)o1 (stereo not shown) [Compound A-36, 5-(4-(4-fluorophenyl)-1-((tetrahydrofuran-3-yl)methyl)-1H-imidazol-5-yl)-N-(3-fluoropyridin-4-yl)furan-2-carboxamide] | 161 nM | 83.2 nM
COc1cnccc1NC(=O)c1ccc(-c2c(-c3ccc(F)cc3)ncn2CC2CCOC2)o1 (stereo not shown) [Compound A-37, 5-(4-(4-fluorophenyl)-1-((tetrahydrofuran-3-yl)methyl)-1H-imidazol-5-yl)-N-(3-methoxypyridin-4-yl)furan-2-carboxamide] | 50.3 nM | 26.4 nM
COc1cnccc1NC(=O)c1ccc(-c2c(-c3ccc(F)cc3)ncn2C2CCOC2)o1 (stereo not shown) [Compound A-38, 5-(4-(4-fluorophenyl)-1-(tetrahydrofuran-3-yl)-1H-imidazol-5-yl)-N-(3-methoxypyridin-4-yl)furan-2-carboxamide] | < 10 nM | 4.21 nM
O=C(Nc1ccncn1)c1ccc(-c2c(-c3ccc(F)cc3)ncn2C2COCC2(F)F)o1 (stereo not shown) [Compound A-40, 5-(1-(4,4-difluorotetrahydrofuran-3-yl)-4-(4-fluorophenyl)-1H-imidazol-5-yl)-N-(pyrimidin-4-yl)furan-2-carboxamide] | 50.5 nM | 26.3 nM
O=C(Nc1c(O)cncc1F)c1ccc(-c2c(-c3ccc(F)cc3)ncn2C2COCC2(F)F)o1 (stereo not shown) [Compound A-41, 5-(1-(4,4-difluorotetrahydrofuran-3-yl)-4-(4-fluorophenyl)-1H-imidazol-5-yl)-N-(3-fluoro-5-hydroxypyridin-4-yl)furan-2-carboxamide] | > 1000 nM | 317 nM
O=C(Nc1cc[nH]c(=O)c1)c1ccc(-c2c(-c3ccc(F)cc3)ncn2C2COCC2(F)F)o1 (stereo not shown) [Compound A-42, 5-(1-(4,4-difluorotetrahydrofuran-3-yl)-4-(4-fluorophenyl)-1H-imidazol-5-yl)-N-(2-oxo-1,2-dihydropyridin-4-yl)furan-2-carboxamide] | 231 nM | 124 nM
Cc1cc(NC(=O)c2ccc(-c3c(-c4ccc(F)cc4)ncn3C3COC3)o2)c(F)cn1 [Compound A-48, N-(5-fluoro-2-methylpyridin-4-yl)-5-(4-(4-fluorophenyl)-1-(oxetan-3-yl)-1H-imidazol-5-yl)furan-2-carboxamide] | 194 nM | 49.9 nM
O=C(Nc1c(O)cncc1F)c1ccc(-c2c(-c3ccc(F)cc3)ncn2C2COCC2F)o1 (stereo not drawn) [Compound A-56, N-(3-fluoro-5-hydroxypyridin-4-yl)-S-(4-(4-fluorophenyl)-1-(4-fluorotetrahydrofuran-3-yl)-1H-imidazol-5-yl)furan-2-carboxamide] | 3070 nM | 1340 nM
